The test concerns human colon adenocarcinoma (PTC) xenografts. In words: In vivo antitumor activity on PTC xenografts in nude mice. More on the design: species or system Balb/c athymic mice. The note with it: for percentage inhibition of tumor growth as compared to controls: 8.5 μg/100 μl intravenously twice a day for 10 days. On the procedure:
The antitumor activity of SEQ ID NO:2 and SEQ ID NO:3 was studied in human colon adenocarcinoma (PTC) xenografts in nude mice. PTC tumor xenografts were grown in Balb/c athymic mice by subcutaneous inoculation of a single cell suspension of PTC cells (15×10^6 cells/100 μl). The tumor bearing animals were divided into 3 groups of three animals each including one group comprising untreated control animals. Treatment with novel somatostatin analogs was initiated when the average tumor volumes, as measured using a vernier caliper, were between 400-800 mm^3. Solutions of SEQ ID NO:2 and SEQ ID NO:3 were prepared at a concentration of 85 μg/ml and intravenously administered to the assigned group of tumor bearing animals at a dose of 8.5 μg/100 μl twice a day so that the total dose of […] was administered to each animal. The treatment was continued for a period of 10 days.
The antitumor activity of the compounds was monitored by measuring tumor volumes every fourth day using the formula W*W*L*[…] (W=smaller diameter, L=larger diameter). The percentage inhibition of tumor growth was calculated using the formula (1-tumor volume-treated/tumor volume control)* 100.

The mark [1] stands for this setting: day 0, average of three animals.
The mark [2] stands for this setting: day 9, average of three animals.
Where [3] appears, read: day 13, average of three animals.
Setting [4] is: day 18, average of three animals.
Where [5] appears, read: day 21, average of three animals.

On to “D-Phe-Cys-Tyr-D-Trp-Orn-Ac5c-Pen-Thr-NH2 [SEQ ID NO: 3]”, for which the “tumor volume, individual animal” value (animal I, day 0) is 0 mm^3; the “tumor volume, individual animal” value (animal I, day 9) was 560 mm^3; the “tumor volume, individual animal” value (animal I, day 13) is 1946 mm^3; the “tumor volume, individual animal” value (animal I, day 18) came out at 3177 mm^3; the “tumor volume, individual animal” value (animal I, day 21) is on record as 0 mm^3; the “tumor volume, individual animal” value (animal II, day 0) is listed as 0 mm^3. For the same substance, the “tumor volume, individual animal” value (animal II, day 9) turned out to be 774 mm^3; the “tumor volume, individual animal” value (animal II, day 13) is recorded as 1800 mm^3; the “tumor volume, individual animal” value (animal II, day 18) was determined as 3610 mm^3; the “tumor volume, individual animal” value (animal II, day 21) was found to be 4939 mm^3; the “tumor volume, individual animal” value (animal III, day 0) was 0 mm^3; the “tumor volume, individual animal” value (animal III, day 9) was determined as 324 mm^3. For the same substance, the “tumor volume, individual animal” value by setting is: (animal III, day 13) 1530 mm^3; (animal III, day 18) 4234 mm^3; (animal III, day 21) 7301 mm^3. The “tumor volume, Avg” value was 0 mm^3 under setting [1]; 552 mm^3 under setting [2]; 1758 mm^3 under setting [3]; 3674 mm^3 under setting [4]; 4080 mm^3 under setting [5]. The “percentage inhibition of tumor growth as compared to controls” value (day 21) worked out at 54.7%.
Take “D-Phe-Cys-Tyr-D-Trp-Orn-Deg-Pen-Thr-NH2 [SEQ ID NO: 2]”: the “tumor volume, individual animal” value stood at 0 mm^3 (animal IV, day 0); 480 mm^3 (animal IV, day 9); 1254 mm^3 (animal IV, day 13); 1965 mm^3 (animal IV, day 18); 491 mm^3 (animal IV, day 21); 0 mm^3 (animal V, day 0). Also, the “tumor volume, individual animal” value runs as follows: (animal V, day 9) 678 mm^3; (animal V, day 13) 2196 mm^3; (animal V, day 18) 5240 mm^3; (animal V, day 21) 4839 mm^3; (animal VI, day 0) 0 mm^3; (animal VI, day 9) 806 mm^3. Also, the “tumor volume, individual animal” value turned out to be 2333 mm^3 (animal VI, day 13); 4453 mm^3 (animal VI, day 18); 6250 mm^3 (animal VI, day 21). In addition, the “tumor volume, Avg” value runs as follows: under setting [1], 0 mm^3; under setting [2], 654 mm^3; under setting [3], 1927 mm^3; under setting [4], 3886 mm^3; under setting [5], 3860 mm^3. The “percentage inhibition of tumor growth as compared to controls” value (day 21) amounted to 57.1%.
